Consider 1 compound from US20240408050A1, “DIHYDROMYRICETIN SPRAY-DRIED DISPERSION FORMULATIONS AND METHODS FOR FORMING THEM” (The Trustees of Princeton University, priority 2018, published 2024).

Converted amounts (≈) assume the structure as drawn. Like-named read-outs stand apart in the source and are kept apart here.

For data set [1] the following is noted: reference [17]; cited from earlier work.
For data set [2] the following is noted: low solubility and permeability; cited from earlier work.
A short description of data set [3]: In vitro release in fed state simulated intestinal fluid (FeSSIF), Example 1, FIG. 3. Format: physicochemical. The conditions noted are these: 37° C., loaded at 1400 μg/mL DHM, 360 minute timepoint. The protocol:
(§1) Release Kinetics in Vitro: Simulated gastric fluid (FaSSGF) and intestinal fluids (FaSSIF and FeSSIF) are prepared according to the manufacturer's instructions. Dissolution tests are performed with spray dried DHM-containing powders or tablets with the appropriate controls. Release under Gastric Conditions: DHM-containing spray dried powder samples are suspended in prewarmed FaSSGF (37° C.) to achieve a drug (DHM) concentration of roughly 10-100× the previously determined equilibrium solubility in the FaSSGF fluid (e.g., 75 μg/mL) by pipetting up and down vigorously multiple times. The samples are incubated for the duration of the study (e.g., 30 min) at 37° C. […] The samples are then diluted as appropriate to fall within the detection range and analyzed by high-performance liquid chromatography (HPLC), with the mobile phase as 80:20 H2O: acetonitrile (each with 0.05% trifluoroacetic acid), and with detection with UV-Vis at 290 nm. The concentration of DHM is then calculated based on a calibration curve. […] The samples are then diluted as appropriate to fall within the detection range and analyzed by HPLC, with the mobile phase as 80:20 H2O: acetonitrile (each with 0.05% trifluoroacetic acid), and with detection with UV-Vis at 290 nm. The concentration of DHM is then calculated based on a calibration curve. […]

Data set [4] in a line: Equilibrium solubility of crystalline DHM in simulated intestinal fluids (FeSSIF, FaSSIF). Format: physicochemical. The conditions noted are these: thermodynamic from solid.
Data set [5] in a line: In vitro release in FeSSIF with 1% v/v Tween 20 (Polysorbate 20), Example 2, FIG. 4. Format: physicochemical. The conditions noted are these: FeSSIF + 1% v/v Tween 20, 37° C. Here is the method: as §1

Regarding `O=C1c2c(O)cc(O)cc2O[C@H](c2cc(O)c(O)c(O)c2)[C@H]1O` [DHM, dihydromyricetin], the oral bioavailability result in data set [1] was “less than 5%”. For the same compound, in data set [2], the BCS class result is on record as “BCS class IV”. Besides, in data set [3], the “dissolved DHM concentration at completion of the release study” value is “approximately reached its previously determined equilibrium concentration”. Also, the solubility thermodynamic is approximately 50 µg/mL (≈ 156 µM) in data set [4] (Fasted State Simulated Intestinal Fluid (FaSSIF), pH 6.5, fassif, fasted state simulated intestinal fluid, pH 6.5, read-out: equilibrium solubility in FaSSIF) and approximately 140 µg/mL (≈ 437 µM) in data set [4] (Fed State Simulated Intestinal Fluid (FeSSIF), pH 5, fessif, fed state simulated intestinal fluid, pH 5.0, read-out: equilibrium solubility in FeSSIF). Besides, in data set [5], the “effect of Tween 20 (Polysorbate 20) surfactant on solubility of DHM” value is on record as “increased”.
